# Data reported in patent US9394254B2, “Antibiotic and anti-parasitic agents that modulate class II fructose 1,6-bisphosphate aldolase” (priority 2013, dated 2016).
# Experiments:
# MtFBA [1] = target: T1, MtFBA (Mycobacterium tuberculosis (strain ATCC 25618 / H37Rv), UniProt P9WQA3); format: binding; conditions: 25° C.
# [2] = Calorimetric titration into MtFBA buffer with 200 μM ZnCl2 (no enzyme); format: binding; conditions: 1 mM compound titrated into MtFBA buffer with 200 μM ZnCl2, 25° C.
# Description: FIG. 5 provides data from the calorimetric titration of HCA. […] Top graphs represent raw heat data and bottom graphs are integrated heat peaks gained at 25° C.
# Top graphs represent raw heat data and bottom graphs are integrated heat peaks gained at 25° C. from 25 injections of Regis 5 into 170 μL of 20 mM Tricine pH 8.0, 100 mM NaCl, and either (a) 700 μM MtFBA with 100 μM ZnCl2 or (b) 200 μM ZnCl2. Data sets were collected in duplicate, analyzed with NanoAnalyze™ software, and fit to an independent model concurrently with a bank constant model to adjust for a heat of dilution.
# MtFBA [3] = target: T1, MtFBA; assay: MtFBA enzyme inhibition; format: biochemical; conditions: for % Inhibition at 1 mM: 1 mM compound
# [4] = target: class IIa FBA isolated from E. coli (Escherichia coli (strain K12), UniProt P0AB71); assay: Inhibition of class IIa FBA from E. coli; format: biochemical; conditions: 25 μM HCA
# Description: Class II FBAs can be broken down into two families (a/b) whose distribution among bacterium is independent of Gram staining determined phylogenetic groups. In this illustration, a single concentration of HCA at 25 μM was tested for the inhibition of class IIa FBA isolated from E. coli and class IIb FBA originating from methicillin-resistant S. aureus (MRSA).
# Error bars represent standard deviations from the average.
# class I FBA [5] = target: class I FBA (Oryctolagus cuniculus (Rabbit), UniProt P00883); assay: Inhibition of class I FBA from rabbit muscle; format: biochemical; conditions: concentrations as high as 1 mM
# class I FBA [6] = conditions: human muscle, concentrations as high as 1 mM
# Chain of class IIa FBA isolated from E. coli (P0AB71 whole entry, looked up): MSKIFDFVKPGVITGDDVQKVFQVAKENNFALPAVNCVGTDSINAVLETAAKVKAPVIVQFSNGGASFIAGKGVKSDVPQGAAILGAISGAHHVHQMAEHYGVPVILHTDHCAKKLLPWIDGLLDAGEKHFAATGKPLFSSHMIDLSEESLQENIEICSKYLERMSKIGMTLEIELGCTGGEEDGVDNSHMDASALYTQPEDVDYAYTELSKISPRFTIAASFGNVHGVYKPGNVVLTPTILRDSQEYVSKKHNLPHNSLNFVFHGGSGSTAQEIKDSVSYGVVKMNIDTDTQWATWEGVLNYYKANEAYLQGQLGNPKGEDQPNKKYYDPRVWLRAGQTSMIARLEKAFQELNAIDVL
# Chain of class I FBA (Oryctolagus cuniculus (Rabbit), UniProt P00883) (P00883 whole entry, looked up): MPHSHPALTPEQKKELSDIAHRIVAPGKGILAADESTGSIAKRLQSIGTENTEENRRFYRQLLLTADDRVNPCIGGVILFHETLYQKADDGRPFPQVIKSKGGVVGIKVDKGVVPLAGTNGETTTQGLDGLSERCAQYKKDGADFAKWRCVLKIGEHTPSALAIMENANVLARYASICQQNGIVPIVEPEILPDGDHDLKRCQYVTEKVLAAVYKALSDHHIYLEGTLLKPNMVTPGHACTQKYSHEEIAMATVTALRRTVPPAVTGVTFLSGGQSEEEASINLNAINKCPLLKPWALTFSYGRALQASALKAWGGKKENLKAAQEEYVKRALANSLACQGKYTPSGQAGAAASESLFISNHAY
structure (smiles),measurement,setting,value
O=C(O)c1ccc2cccc(O)c2n1 [Compound 5],n (ITC stoichiometry),MtFBA [1],0.94±0.14
same,ΔH,MtFBA [1]; ITC,-6.867 ± 0.139 kcal/mol
same,ΔS,MtFBA [1]; ITC,2.44±3.12 J mol^−1 K^−1
same,Kd,"MtFBA [1]; ITC, 5 mM compound into 700 μM MtFBA, 20 mM Tricine pH 8.0, 100 mM NaCl, 100 μM ZnCl2, read-out: dissociation constant Kd",6.94 ± 0.97 µM
same,binding to buffer Zn(II),[2],no appreciable binding
same,IC50,"MtFBA [3]; FIG. 6A inset, serial dilutions of compound",17 ± 2.1 µM
same,IC50,MtFBA [3]; SAR table,14 ± 2 µM
same,inhibition at 1000 µM,MtFBA [3]; read-out: % Inhibition at 1 mM,95 ± 4.1%
same,% inhibition,[4],42.2±2.8%
same,inhibition of class I FBA,class I FBA [5],no inhibitory affects
same,inhibition of class I FBA,class I FBA [6],no inhibitory affects
"O=C(O)c1ccc2cc(F)cc(O)c2n1 [Compound 6F-HCA, 6-fluoro-8-hydroxyquinoline-2-carboxylic acid]",increase in potency toward the enzyme relative to HCA,MtFBA [3]; fluorine at position 6 versus HCA,50%
Oc1cccc2cccnc12 [Compound 6],% Inhibition at 1 mM,MtFBA [3],54 ± 18%
same,IC50,MtFBA [3]; SAR table,300 ± 67 µM
Nc1cccc2cccnc12 [Compound 18],% Inhibition at 1 mM,MtFBA [3],68 ± 2.2%
same,IC50,MtFBA [3]; SAR table,79 ± 10 µM
CS(=O)(=O)Nc1ccc2cccc(O)c2n1 [Compound 34],% Inhibition at 1 mM,MtFBA [3],12 ± 5.4%
same,IC50,MtFBA [3]; SAR table,570 ± 87 µM
